This note sets out measurements from patent US7718641B2, “Pyrrolo [3,4-H] isoquinoline compounds and methods for modulating gated ion channels” (Aros Pharma ApS, priority 2005, dated 2010).

The term ED50 denotes the dose at which the effect has come halfway, by size or by number of responders.

One assay has as its system formalin-induced pain. In words: Formalin test, model of acute tonic pain. Type of assay: in vivo, rat. The method, then: Male Sprague-Dawley rats are housed together in groups of three animals under standard conditions with unrestricted access to food and water. All experiments are conducted according to the ethical guidelines for investigations of experimental pain in conscious animals (Zimmerman, 1983)
Assessment of formalin-induced flinching behavior in normal, uninjured rats (body weight 150-180 g) was made with the use of an Automated Nociception Analyser (University of California, San Diego, USA). Briefly, this involved placing a small C-shaped metal band (10 mm wide×27 mm long) on the hindpaw of the rat to be tested. The rats (four rats were included in each testing session) were then placed in a cylindrical plexiglass observation chamber (diameter 30.5 cm and height 15 cm) for 20 min for adaptation purposes prior to being administered drug or vehicle according to the experimental paradigm being followed. After adaptation, individual rats were then gently restrained and formalin (5% in saline, 50 μl, s.c.) was injected into the plantar surface of the hindpaw using a 27G needle. Rats were then returned to their separate observation chambers, each of which were in turn situated upon an enclosed detection device consisting of two electromagnetic coils designed to produce an electromagnetic field in which movement of the metal band could be detected. The analogue signal was then digitised and a software algorithm (LabView) applied to enable discrimination of flinching behaviour from other paw movements. A sampling interval of 1 min was used and on the basis of the resulting response patterns 5 phases of nociceptive behaviour were identified and scored: first phase (P1; 0-5 min), interphase (Int; 6-15 min), second phase (P2; […]), phase 2A (P2A; 16-40 min) and phase 2B (P2B; 41-60 min).
Nociceptive behavior was also determined manually every 5 min by measuring the amount of time spent in each of four behavioral categories: 0, treatment of the injected hindpaw is indistinguishable from that of the contralateral paw; 1, the injected paw has little or no weight placed on it; 2, the injected paw is elevated and is not in contact with any surface; 3, the injected paw is licked, bitten, or shaken. A weighted nociceptive score, ranging from 0 to 3 was calculated by multiplying the time spent in each category by the category weight, summing these products, and dividing by the total time for each 5 min block of time. (Coderre et al., Pain 1993; 54: 43). On the basis of the resulting response patterns, […] of nociceptive behavior were identified and scored: first phase (P1; 0-5 min), interphase (Int; 6-15 min), second phase (P2; […]), phase 2A (P2A; 16-40 min) and phase 2B (P2B; 41-60 min). […]

Assay [1] relates to rat dorsal root ganglion neurons. In words: Patch clamp (voltage clamp) of native proton-gated currents in rat dorsal root ganglion neurons in primary culture. The assay is classed as cell-based. The note with it: 1 μM, voltage-clamp mode, n=3. As to the method:
These endogenous proton-activated inward currents were recorded in the presence and absence of Compound A (1 μM) or Compound H (1 μM) using the whole cell configuration of the patch clamp method (voltage clamp mode).
Sensory neurons can be isolated and cultured in vitro from different animal species. The most widely used protocols use sensory neurons isolated from neonatal (Eckert, et al. (1997) J Neurosci Methods 77:183-190) and embryonic (Vasko, et al. (1994) J Neurosci 14:4987-4997) rat. […] Electrophysiology is performed similarly as described above in Example 2. […] In the current-clamp mode, change in the trans-membrane potential are recorded. Under acidic conditions (e.g., pH 6.5) the membrane depolarizes, leading to the firing of action potentials, as shown in FIGS. 7A and 7B.
For orientation: Patch clamp records ionic current or voltage across a cell membrane.

For `COc1ccc(F)cc1-c1cc2c(c3c1CCN(C)C3)NC(=O)/C2=N/O` [Compound A, 5-(5-fluoro-2-methoxyphenyl)-6,7,8,9-tetrahydro-3-(hydroxyimino)-8-methyl-1H-pyrrolo[3,2-h]isoquinoline-2(3H)-one], the median effective dose (ED50) in the assay with formalin-induced pain (Rattus norvegicus, ip, i.p. 30 min before formalin, phase 2 (phase IIa), rat, read-out: ED50, total pain score in the formalin test) was ~12 mg/kg. The “total pain score behavior (flinching, licking, biting)” value in the assay on formalin-induced pain (i.p. 30 min before formalin, phase 1 and 2, n=6-8) is “reduce the total pain score behavior”. For the same molecule, the “effect on pH 6.5-induced inward current in sensory neurons” value in assay [1] is on record as “inhibit the pH 6.5-induced inward current”.

As to `CCN1CCc2c(-c3ccccc3)cc3c(c2C1)NC(=O)/C3=N/O` [Compound H, 5-phenyl-6,7,8,9-tetrahydro-3-(hydroxyimino)-8-ethyl-1H-pyrrolo[3,2-h]isoquinoline-2(3H)-one], the “pain intensity as evaluated by the flinching behavior” value in the assay with formalin-induced pain (Automated Nociception Analyser, n=6-8) is listed as “dose-dependent reduction of the pain intensity”. For the same molecule, in assay [1], the “effect on pH 6.5-induced inward current in sensory neurons” value is reported as “inhibit the pH 6.5-induced inward current”.
